Marks after values point to notes of the source that are not given here.
Key:
[1] = system: IL-6; conditions: quoted in discussion, no reference given, cited from earlier work
[2] = Part A pharmacokinetics (plasma and urine, noncompartmental analysis); type: in vivo, human
Protocol: In Part A, blood was collected on Cycle 1, Days 1 and 15 at specified intervals prior to, during, and postinfusion (5 min–8 h), and on Days 2, 3, 16, and 17 (24 and 48 h postinfusion). Urine was collected on Cycle 1, Day 1 preinfusion, at 0–8 h, and 8–24 h. In Part B, blood was collected on Cycle 1, Day 1, prior to, during, and at 1–24 h postinfusion. Pharmacokinetic parameters were calculated using noncompartmental analysis.

[3] = preclinical; cited from earlier work
[4] = system: patients with advanced solid tumours, including melanoma; experiment: Phase 1 study overall (Parts A and B): safety; type: in vivo, human
Protocol: Safety was assessed by monitoring AEs, serious AEs (SAEs), laboratory parameters, vital signs, 12-lead electrocardiograms (ECGs), Eastern Cooperative Oncology Group performance status, and symptom-directed physical and neurologic examination findings. AEs were graded by investigators based on the National Cancer Institute Common Terminology Criteria for Adverse Events, version 3.[16]

[5] = system: cyclin D1; conditions: quoted in discussion, no reference given, cited from earlier work
[6] = system: IL-8; design: IC50 for inhibition of spontaneous secretion of IL-8: unit not given here; conditions: quoted in discussion, no reference given, cited from earlier work
[7] = Cycle 1 Day 1, 160 mg/m^2 (n=3)
[8] = Cycle 1 Day 1, 320 mg/m^2 (n=7)
[9] = Cycle 1 Day 1, 400 mg/m^2 (n=1)
[10] = Cycle 1 Day 1, 480 mg/m^2 (n=4)
[11] = Cycle 1 Day 15, 20 mg/m^2 (n=3)
[12] = Cycle 1 Day 15, 40 mg/m^2 (n=3)
[13] = Cycle 1 Day 15, 80 mg/m^2 (n=3)
[14] = Cycle 1 Day 15, 160 mg/m^2 (n=3)
[15] = Cycle 1 Day 15, 320 mg/m^2 (n=6)
[16] = Cycle 1 Day 15, 400 mg/m^2 (n=1)
[17] = Cycle 1 Day 15, 480 mg/m^2 (n=4)

CCNc1cc(O)c2c(c1)/C=C/C[C@H](O)[C@H](O)C(=O)/C=C\[C@@H](C)[C@H](C)OC2=O [E6201, (3S,4R,5Z,8S,9S,11E)-14-(ethylamino)-8,9,16-trihydroxy-3,4-dimethyl-3,4,9,19-tetrahydro-1H-2-benzoxacyclotetradecine-1,7 (8H)-dione]
IC50 for inhibition of spontaneous secretion of IL-6 [1]: 4.09 ng/mL
IC50 ([1]; read-out: IC50 for inhibition of spontaneous secretion of IL-6): 10.5 nM
Fraction of E6201 excreted in the urine ([2]; 24-hour collection interval): ≤ 0.21%
AUC(0-t), mean (%CV) ([2]; Cycle 1 Day 1, 20 mg/m^2 (n=4)): 1650 (218) ng·h/mL
CLR (renal clearance), mean (%CV) ([2]; Cycle 1 Day 1, 20 mg/m^2 (n=4)): 10.0 (188) mL/h
Cmax, mean (%CV) ([2]; Cycle 1 Day 1, 20 mg/m^2 (n=4)): 552 (50) ng/mL
Tmax, median (range) ([2]; Cycle 1 Day 1, 20 mg/m^2 (n=4)): 0.5 (0.25–0.5) h
fe (fraction of drug excreted in urine), mean (%CV) ([2]; Cycle 1 Day 1, 20 mg/m^2 (n=4)): 0.0125 (42) %
t½, mean ([2]; Cycle 1 Day 1, 20 mg/m^2, n=2): 1.96^b (--) h
CL, mean (%CV) ([2]; Cycle 1 Day 1, 20 mg/m^2, n=2, %CV 2): 110^b (2) L/h
Vss, mean (%CV) ([2]; Cycle 1 Day 1, 20 mg/m^2, n=2, %CV 28): 135^b (28) L
AUC(0-t), mean (%CV) ([2]; Cycle 1 Day 1, 40 mg/m^2 (n=3)): 2410 (201) ng·h/mL
CLR (renal clearance), mean (%CV) ([2]; Cycle 1 Day 1, 40 mg/m^2 (n=3)): 1.65 (--) mL/h
Cmax, mean (%CV) ([2]; Cycle 1 Day 1, 40 mg/m^2 (n=3)): 870 (70) ng/mL
Tmax, median (range) ([2]; Cycle 1 Day 1, 40 mg/m^2 (n=3)): 0.5 (0.5–0.5) h
fe (fraction of drug excreted in urine), mean (%CV) ([2]; Cycle 1 Day 1, 40 mg/m^2 (n=3)): 0 (--) %
t½, mean ([2]; Cycle 1 Day 1, 40 mg/m^2, n=2): 2.70^b (--) h
Vss, mean (%CV) ([2]; Cycle 1 Day 1, 40 mg/m^2, n=2, %CV 21): 164^b (21) L
CL, mean (%CV) ([2]; Cycle 1 Day 1, 40 mg/m^2, n=2, %CV 25): 103^b (25) L/h
AUC(0-t), mean (%CV) ([2]; Cycle 1 Day 1, 80 mg/m^2 (n=3)): 2520 (63) ng·h/mL
CL, mean (%CV) ([2]; Cycle 1 Day 1, 80 mg/m^2 (n=3)): 68.7 (60) L/h
CLR (renal clearance), mean (%CV) ([2]; Cycle 1 Day 1, 80 mg/m^2 (n=3)): 28.9 (54) mL/h
Cmax, mean (%CV) ([2]; Cycle 1 Day 1, 80 mg/m^2 (n=3)): 3350 (149) ng/mL
Tmax, median (range) ([2]; Cycle 1 Day 1, 80 mg/m^2 (n=3)): 0.5 (0.25–0.5) h
Vss, mean (%CV) ([2]; Cycle 1 Day 1, 80 mg/m^2 (n=3)): 135 (100) L
fe (fraction of drug excreted in urine), mean (%CV) ([2]; Cycle 1 Day 1, 80 mg/m^2 (n=3)): 0.04 (26) %
t½, mean ([2]; Cycle 1 Day 1, 80 mg/m^2 (n=3)): 2.79 (--) h
AUC(0-t), mean (%CV) [2, 7]: 2770 (36) ng·h/mL
CL, mean (%CV) [2, 7]: 119 (50) L/h
CLR (renal clearance), mean (%CV) [2, 7]: 89.7 (299) mL/h
Cmax, mean (%CV) [2, 7]: 2740 (51) ng/mL
Tmax, median (range) [2, 7]: 0.5 (0.25–0.5) h
Vss, mean (%CV) [2, 7]: 216 (55) L
fe (fraction of drug excreted in urine), mean (%CV) [2, 7]: 0.0567 (186) %
t½, mean [2, 7]: 3.98 (--) h
AUC(0-t), mean (%CV) [2, 8]: 10400 (26) ng·h/mL
CL, mean (%CV) [2, 8]: 57.2 (22) L/h
CLR (renal clearance), mean (%CV) [2, 8]: 60.0 (659) mL/h
Cmax, mean (%CV) [2, 8]: 14800 (73) ng/mL
Tmax, median (range) [2, 8]: 0.25 (0.25–0.5) h
Vss, mean (%CV) [2, 8]: 89.1 (36) L
fe (fraction of drug excreted in urine), mean (%CV) [2, 8]: 0.109 (56) %
t½, mean [2, 8]: 4.00 (--) h
AUC(0-t), mean (%CV) [2, 9]: 13500 (--) ng·h/mL
CL, mean (%CV) [2, 9]: 52.8 (--) L/h
CLR (renal clearance), mean (%CV) [2, 9]: 111 (--) mL/h
Cmax, mean (%CV) [2, 9]: 19500 (--) ng/mL
Tmax, median (range) [2, 9]: 0.25 (0.25–0.25) h
Vss, mean (%CV) [2, 9]: 80.1 (---) L
fe (fraction of drug excreted in urine), mean (%CV) [2, 9]: 0.21 (--) %
t½, mean [2, 9]: 6.50 (--) h
AUC(0-t), mean (%CV) [2, 10]: 10200 (56) ng·h/mL
CL, mean (%CV) [2, 10]: 101 (44) L/h
CLR (renal clearance), mean (%CV) [2, 10]: 137 (128) mL/h
Cmax, mean (%CV) [2, 10]: 8070 (55) ng/mL
Tmax, median (range) [2, 10]: 0.375 (0.25–0.5) h
Vss, mean (%CV) [2, 10]: 275 (42) L
fe (fraction of drug excreted in urine), mean (%CV) [2, 10]: 0.143 (96) %
t½, mean [2, 10]: 5.97 (--) h
AUC(0-t), mean (%CV) [2, 11]: 1420 (250) ng·h/mL
Cmax, mean (%CV) [2, 11]: 895 (228) ng/mL
Tmax, median (range) [2, 11]: 0.5 (0.25–0.5) h
CL, mean (%CV) ([2]; Cycle 1 Day 15, 20 mg/m^2, n=1): 184^c (--) L/h
Vss, mean (%CV) ([2]; Cycle 1 Day 15, 20 mg/m^2, n=1): 324^ c (--) L
t½, mean ([2]; Cycle 1 Day 15, 20 mg/m^2, n=1): 1.58^c (--) h
AUC(0-t), mean (%CV) [2, 12]: 2090 (169) ng·h/mL
Cmax, mean (%CV) [2, 12]: 767 (78) ng/mL
Tmax, median (range) [2, 12]: 0.5 (0.25–0.5) h
t½, mean ([2]; Cycle 1 Day 15, 40 mg/m^2, n=2): 1.88^ b (--) h
Vss, mean (%CV) ([2]; Cycle 1 Day 15, 40 mg/m^2, n=2, %CV 27): 115^b (27) L
CL, mean (%CV) ([2]; Cycle 1 Day 15, 40 mg/m^2, n=2, %CV 47): 91^b (47) L/h
AUC(0-t), mean (%CV) [2, 13]: 2540 (66) ng·h/mL
Cmax, mean (%CV) [2, 13]: 2590 (154) ng/mL
Tmax, median (range) [2, 13]: 0.25 (0.25–0.5) h
t½, mean [2, 13]: 5.55 (--) h
CL, mean (%CV) ([2]; Cycle 1 Day 15, 80 mg/m^2, n=2, %CV 67): 76.2^ b (67) L/h
Vss, mean (%CV) ([2]; Cycle 1 Day 15, 80 mg/m^2, n=2, %CV 146): 148^ b (146) L
AUC(0-t), mean (%CV) [2, 14]: 4300 (32) ng·h/mL
CL, mean (%CV) [2, 14]: 71.2 (18) L/h
Cmax, mean (%CV) [2, 14]: 5430 (120) ng/mL
Tmax, median (range) [2, 14]: 0.25 (0.25–0.5) h
Vss, mean (%CV) [2, 14]: 110 (74) L
t½, mean [2, 14]: 4.20 (--) h
AUC(0-t), mean (%CV) [2, 15]: 11100 (13) ng·h/mL
CL, mean (%CV) [2, 15]: 49.8 (18) L/h
Cmax, mean (%CV) [2, 15]: 18000 (64) ng/mL
Tmax, median (range) [2, 15]: 0.25 (0.25–0.5) h
Vss, mean (%CV) [2, 15]: 111 (69) L
t½, mean [2, 15]: 6.83 (--) h
AUC(0-t), mean (%CV) [2, 16]: 10500 (--) ng·h/mL
Cmax, mean (%CV) [2, 16]: 21600 (--) ng/mL
Tmax, median (range) [2, 16]: 0.25 (0.25–0.25) h
AUC(0-t), mean (%CV) [2, 17]: 11300 (73) ng·h/mL
CL, mean (%CV) [2, 17]: 82 (38) L/h
Cmax, mean (%CV) [2, 17]: 12200 (88) ng/mL
Tmax, median (range) [2, 17]: 0.375 (0.25–0.5) h
Vss, mean (%CV) [2, 17]: 217 (84) L
t½, mean [2, 17]: 4.78 (--) h
Accumulation on multiple dosing ([2]; Day 15 vs Day 1, once-weekly dosing): Lack of E6201 accumulation
Mean clearance (CL), range over dose groups ([2]; Part A): 49.8 to 184 L/h
Renal clearance (CLR), range over dose groups ([2]; Part A): 1.65 to 137 mL/h
Time of peak E6201 concentration (mid-to-end of infusion) ([2]; Part A, 30-min IV infusion): 0.25 to 0.5 h
t1/2 of E6201 [3]: 3 to 6 h
Patients who died during the study ([4]; Parts A and B): Four
AEs of cardiomyopathy ([4]; during the study): no reported AEs of cardiomyopathy
New skin cancers ([4]; during the study): No new skin cancers were reported
IC50 for inhibition of cyclin D1 [5]: 1.87 ng/mL
IC50 ([5]; read-out: IC50 for inhibition of cyclin D1): 4.8 nM
IC50 for inhibition of spontaneous secretion of IL-8 [6]: 8.19
IC50 ([6]; read-out: IC50 for inhibition of spontaneous secretion of IL-8): 21.8 nM
